Values of other authors, collected in US20240189327A1, “SYNERGISTIC CANNABINOID ESTERS, THEIR SALTS AND USES THEREOF” (LONDON PHARMACEUTICALS AND RESEARCH CORPORATION, priority 2021, published 2024).

How the values were obtained:
[1] = in vivo
[2] = pH 7.4
intraocular pressure = details: normotensive rabbit

Row | Structure (SMILES) | time to maximum plasma level [1] | increase of aqueous solubility over the parent endocannabinoids [2] | effect on intraocular pressure (intraocular pressure)
1 | N[C@H]1C(O)O[C@H](CO)[C@@H](O)[C@@H]1O (stereo partly shown) [glucosamine] | 50 min |  | 
2 | CCCCC/C=C\C/C=C\C/C=C\C/C=C\CCCC(=O)NCCOP(=O)(O)O [phosphate ester pro-drug of anandamide] |  | > 16 500 fold | reduced the intraocular pressure
3 | C=C(C)[C@@H]1CCC(C)=C[C@H]1c1c(O)cc(CCCCC)cc1O [CBD, cannabidiol] | 240 to 360 min |  | 
